From the supplement of paper PMC10307832

Experiments:
Assay in all cases: relative viability (nuclei count vs DMSO), 5 days (fraction); higher = more cells survive
[1] = compound: COc1cc2nccc(Oc3ccc(NC(=O)C4(C(=O)Nc5ccc(F)cc5)CC4)cc3)c2cc1OC [Cabozantinib] + CC1(C)CCC(c2ccc(Cl)cc2)=C(CN2CCN(c3ccc(C(=O)NS(=O)(=O)c4ccc(N[C@H](CCN5CCOCC5)CSc5ccccc5)c(S(=O)(=O)C(F)(F)F)c4)cc3)CC2)C1 [Navitoclax] (partner 0.5 µM)
In short: (§1)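 Lung cancer cell lines in 1536-well plates got either a single drug or a fixed anchor-drug dose together with five library-drug doses (not always all listed) in √10 steps, by pin tool, on the day after seeding. Nuclei were counted after 5 days, and relative viability is the treated-to-vehicle ratio of nuclei counts. Values are medians of duplicate plates.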

Zosuquidar + Palbociclib = compound: O[C@@H](COc1cccc2ncccc12)CN1CCN([C@@H]2c3ccccc3[C@@H]3[C@H](c4ccccc42)C3(F)F)CC1 [Zosuquidar] + CC(=O)c1c(C)c2cnc(Nc3ccc(N4CCNCC4)cn3)nc2n(C2CCCC2)c1=O [Palbociclib] (partner 0.5 µM)
In short: as §1

Zosuquidar + Luminespib = compound: O[C@@H](COc1cccc2ncccc12)CN1CCN([C@@H]2c3ccccc3[C@@H]3[C@H](c4ccccc42)C3(F)F)CC1 [Zosuquidar] + CCNC(=O)c1noc(-c2cc(C(C)C)c(O)cc2O)c1-c1ccc(CN2CCOCC2)cc1 [Luminespib] (partner 0.01 µM)
In short: as §1

Zosuquidar + Lapatinib = compound: O[C@@H](COc1cccc2ncccc12)CN1CCN([C@@H]2c3ccccc3[C@@H]3[C@H](c4ccccc42)C3(F)F)CC1 [Zosuquidar] + CS(=O)(=O)CCNCc1ccc(-c2ccc3ncnc(Nc4ccc(OCc5cccc(F)c5)c(Cl)c4)c3c2)o1 [Lapatinib] (partner 2 µM)
In short: as §1

Cell Line	relative viability ([1]; first compound 0.02 µM)	relative viability ([1]; first compound 0.06325 µM)	relative viability ([1]; first compound 0.2 µM)	relative viability ([1]; first compound 0.6325 µM)	relative viability ([1]; first compound 2 µM)	relative viability (Zosuquidar + Palbociclib; first compound 0.01 µM)	relative viability (Zosuquidar + Palbociclib; first compound 0.03162 µM)	relative viability (Zosuquidar + Palbociclib; first compound 0.1 µM)	relative viability (Zosuquidar + Palbociclib; first compound 0.3162 µM)	relative viability (Zosuquidar + Palbociclib; first compound 1 µM)	relative viability (Zosuquidar + Luminespib; first compound 0.01 µM)	relative viability (Zosuquidar + Luminespib; first compound 0.03162 µM)	relative viability (Zosuquidar + Luminespib; first compound 0.1 µM)	relative viability (Zosuquidar + Luminespib; first compound 0.3162 µM)	relative viability (Zosuquidar + Luminespib; first compound 1 µM)	relative viability (Zosuquidar + Lapatinib; first compound 0.01 µM)	relative viability (Zosuquidar + Lapatinib; first compound 0.03162 µM)	relative viability (Zosuquidar + Lapatinib; first compound 0.1 µM)	relative viability (Zosuquidar + Lapatinib; first compound 0.3162 µM)	relative viability (Zosuquidar + Lapatinib; first compound 1 µM)
LU99A	0.774	0.9	0.762	0.686	0.783	0.342	0.37	0.473	0.459	0.353	0.201	0.22	0.256	0.276	0.303	0.918	0.954	1.11	1.05	0.982
LXF-289	0.991	0.934	0.926	0.927	0.933	0.576	0.599	0.614	0.582	0.584	0.665	0.762	0.675	0.711	0.581	0.876	0.908	0.872	0.913	0.923
NCI-H23		0.913	0.972	0.71	0.644	0.45		0.516	0.578	0.524	0.206	0.223	0.223	0.222	0.266	1.15	1.16	1.38	1.23	1.15
NCI-H322M	1.24	1.4		1.2	1.19	0.458	0.485	0.475	0.463	0.468	0.754	0.886	0.664	0.862	0.727	0.552	0.63	0.417	0.582	0.567
NCI-H460	1.46	1.39	1.09	1.11	1.24	0.15	0.18	0.203	0.171	0.19	0.0346	0.0269	0.0352	0.0358	0.0277	0.927	1	0.983	0.977	1.04
NCI-H520	0.902	1.16	1.21	1.02	0.998	0.201	0.195	0.198	0.179	0.208	0.226	0.192		0.193	0.206	0.878	0.827	0.569	0.855	0.982
NCI-H647	0.994	1.15	1.06	1.11	0.886	0.386	0.406	0.452	0.377	0.361	0.116	0.165	0.181	0.142	0.177	1.04	1.13	1.03	1.13	1.14
NCI-H727	0.355	0.408	0.463	0.441	0.507	0.596	0.607		0.599	0.668	0.23	0.344	0.434	0.427	0.431	0.846	0.795	0.748	1.02	0.94
NCI-H838	1.21	1.19	1.12	1.03	1.03	0.217	0.223	0.218	0.225	0.227	0.329	0.328	0.28	0.304	0.284	1.04	0.765	0.858	1.18	1.06
NCI-H1355	0.96	0.974	0.967	0.893	0.861	0.417	0.397	0.404	0.308	0.412	0.741	0.752	0.644	0.822	0.824	0.993	1	0.759	1.11	1
NCI-H1395	1.13	1.1	1.41	1.12	1.12	0.596	0.664		0.64	0.549	0.685	0.656	0.618	0.349	0.818	1.03	0.903	0.957	1.54	1.04
NCI-H1437	1.2	1.13	1.12	1.13	1.02	0.3	0.333	0.348	0.272	0.32	1.1	1.14	1.05	1.13	1.11	0.825	0.669	0.747	0.908	0.792
NCI-H1650	1.19	1.5	1.07	1.23	1.06	0.373	0.31	0.365	0.351	0.337	0.178	0.183	0.204	0.203	0.202	0.783	0.696	0.684	1.22	0.875
NCI-H1651	1.19	1.03	1.15	0.974	0.928	0.509	0.537	0.489	0.508	0.511	0.897	0.973	0.655	0.862	0.792	0.866	0.902	0.865	1.02	0.943
NCI-H1666	0.889	1.16	0.887	0.996	1.13	0.56	0.715	0.668	0.757	0.648	0.966	0.978	0.945	1.01	1.08	0.534	0.713	0.875	0.754	0.579
NCI-H1734	0.8	0.832	0.85	0.818	0.667	0.337	0.383	0.404	0.306	0.344	0.222	0.251	0.182	0.187	0.184	1.03	1.02	1.1	1.07	1.13

Cell Line	relative viability ([1]; first compound 0.02 µM)	relative viability ([1]; first compound 0.06325 µM)	relative viability ([1]; first compound 0.2 µM)	relative viability ([1]; first compound 0.6325 µM)	relative viability ([1]; first compound 2 µM)	relative viability (Zosuquidar + Palbociclib; first compound 0.01 µM)	relative viability (Zosuquidar + Palbociclib; first compound 0.03162 µM)	relative viability (Zosuquidar + Palbociclib; first compound 0.1 µM)	relative viability (Zosuquidar + Palbociclib; first compound 0.3162 µM)	relative viability (Zosuquidar + Palbociclib; first compound 1 µM)	relative viability (Zosuquidar + Luminespib; first compound 0.01 µM)	relative viability (Zosuquidar + Luminespib; first compound 0.03162 µM)	relative viability (Zosuquidar + Luminespib; first compound 0.1 µM)	relative viability (Zosuquidar + Luminespib; first compound 0.3162 µM)	relative viability (Zosuquidar + Luminespib; first compound 1 µM)	relative viability (Zosuquidar + Lapatinib; first compound 0.01 µM)	relative viability (Zosuquidar + Lapatinib; first compound 0.03162 µM)	relative viability (Zosuquidar + Lapatinib; first compound 0.1 µM)	relative viability (Zosuquidar + Lapatinib; first compound 0.3162 µM)	relative viability (Zosuquidar + Lapatinib; first compound 1 µM)
NCI-H1755	1	1.07	0.972	0.87	0.807	0.47	0.461	0.464	0.441	0.454	0.335	0.729	0.564	0.358	0.471	1	0.946	0.951	1.04	1.08
NCI-H1792	0.59	0.967	0.555	0.637	0.589	0.665	0.583		0.673	0.703	0.334	0.234	0.38	0.673	0.293	0.9	0.893	0.837	0.839	0.795
NCI-H1793	0.477	0.514	0.267	0.235	0.29	0.271			0.333	0.306	0.179	0.263		0.207	0.207	0.916	0.625		0.835	1.11
NCI-H1915	0.778	0.823	0.801	0.732	0.769	0.501	0.542	0.501	0.635	0.507	0.742	0.839	0.792	0.753	0.811	0.988	0.996	0.953	1.05	1.01
NCI-H1944		1.08	0.972	0.969	0.921	0.343	0.358	0.342	0.391	0.319	0.76	0.655	0.722	0.785	0.651	0.822	0.797	0.585	0.925	0.794
NCI-H1975	1.25	1.09	1.22	1.01	1.05	0.587	0.475	0.582	0.714	0.531	0.264	0.174	0.217	0.213	0.182	0.796	0.7	0.945	0.991	0.858
NCI-H1993	0.934	0.901	0.857	0.851	0.991	0.653	0.603		0.617	0.615	0.874	0.78	1.55	0.778	0.75	0.965	0.908	0.751	1.04	0.79
NCI-H2009	1.25	1.19	1.21	1.18	1.2	0.204	0.183	0.154	0.251	0.211	1	1.07	0.986	1.02	0.989	0.931	0.905	0.891	1.09	0.849
NCI-H2023	1.07	1.05	0.931	0.872	0.691	0.364	0.36	0.418	0.37	0.313	0.796	0.619	0.904	0.776	0.759	0.848	0.856	0.712	1.45	0.955
NCI-H2085	1.16	1.17	1.15	1.21	1.06	0.5	0.469		0.508	0.484	0.425	0.526	0.531	0.44	0.471	0.796	0.754	0.475	0.826	0.778
NCI-H2087	1.03	1.1	1.06	0.985	0.981	0.19	0.25	0.243	0.205	0.249	0.155		0.184	0.195	0.16	0.931	0.776	1.06	1.19	1.19
NCI-H2126	0.828	0.84	0.869	0.831	0.896	0.349	0.339	0.351	0.341	0.351	0.93	0.909		0.935	0.952	0.75	0.753	0.639	0.755	0.733
NCI-H2170	0.579	0.611	0.559	0.652	0.62	0.364	0.42	0.397	0.426	0.379	0.663	0.716	0.599	0.92	0.582	0.256	0.282	0.256	0.308	0.283
NCI-H2228	0.784	0.689	0.725	0.824	0.805	0.804	0.821	0.76	0.865	0.613	0.124	0.163	0.185	0.171	0.206	1.2	0.937	0.956	1.06	1.21
NCI-H2347	0.83	0.994	0.803	0.612	0.375	0.403	0.466	0.432	0.413	0.43	0.539	0.51	0.256	0.34	0.602	0.888	0.931	0.908	1.06	0.925
NCI-H2405		1.09	0.881	0.787	0.856	0.565	0.528	0.555	0.539	0.489	0.671	0.687	0.589	0.654	0.824	1.17	0.971	1.15	1.24	1.11
